Read-outs that look alike come from different tables or passages of the source.

Common to all, as to type: in vivo, Balb/C mice
The test system of test [1] is mice. Put plainly: Restraint stress, organ weights. As to conditions: restraint stress 2 h; flavonoids 10 mg/kg p.o., standard diazepam 2 mg/kg IP, 15 days; mean ± SEM. The source says:
(§1) The adhesive tape was removed, and blood samples were collected. After blood collection, the animals were sacrificed, and the brain and vital organs were isolated and weighed.

For test [2], the system named is acetic acid-induced stress mice. Put plainly: Chemical induced stress (acetic acid model, writhes). The text has this:
The anti-stress effect of synthesized flavonoids was screened for chemical-induced stress using the acetic acid model. Animals were randomly assigned into two groups of 8. The control group received Tween 80 (2%). […] The treatments in all groups were given persistently for a period of 15 days.

For test [3], the system named is mice. Put plainly: Swimming endurance test. As to conditions: flavonoids 10 mg/kg, standard diazepam 2 mg/kg IP, 15 days; recorded for 30 min; mean ± SEM, n = 8. How it is done:
Animals were divided at random into two groups of 8. Tween 80 (2%) was given to the control group, while animals in each group were treated with 10 mg/kg of each flavonoid. […] All the doses were given constantly for 15 days. On 15th day, one hour after the dose administration, all the animals were allowed to swim in isolation in a glass tank. The time of immobility for each animal was recorded for a period of 30 min [26, 27].

Test [4] deals with mice. Put plainly: Biochemical parameters in blood after restraint stress. The settings on record: flavonoids 10 mg/kg, standard diazepam 2 mg/kg, 15 days, mean ± SEM.
From the text: as §1
After restrain test, blood samples were collected for the assessment of blood glucose, triglycerides and total cholesterol levels, using available commercial kits. […]

Test [5] relates to mice. Put plainly: Biochemical parameters in brain after restraint stress. As to conditions: flavonoids 10 mg/kg, standard diazepam 2 mg/kg, 15 days, mean ± SEM.
Setting [6] is: Mus musculus, ip, 360 h; read-out: Antistress Response (%).
The mark [7] stands for this setting: flavonoids 10 mg/kg, standard diazepam 2 mg/kg IP, 15 days; acetic acid i.p. 0.1 mL (6% v/v), writhes within 20 min; mean ± SEM, n = 8.
The mark [8] stands for this setting: Mus musculus, ip, 360 h, read-out: Antistress Response (%).

Take `CN(C)c1ccc(-c2cc(=O)c3ccccc3o2)cc1` [F5]: in the test on mice [1], the “Weight of Adrenal Gland” value was 8.12 ± 1.81 mg, the “Weight of Brain” value was 412.7 ± 2.81 mg and the “Weight of Spleen” value came out at 170.3 ± 2.61 mg. For the same compound, the inhibition in vivo at 10 mg/kg in test [2] (setting [6]) came out at 64.6%. Also, in test [2] (setting [7]), the “Number of Writhes” value amounted to 16.31 ± 2.58. Further, the “Immobility Time” value with mice [3] came to 3.64 ± 0.21 min. Further, in the test on mice [4], the “Glucose (blood)” value stood at 101.33 ± 1.72, the “TGs (blood triglycerides)” value is on record as 46.72 ± 0.51 and the “Total Ch (blood total cholesterol)” value amounted to 81.82 ± 0.85. Also, in the test on mice [5], the “Catalase (brain)” value turned out to be 17.11 ± 0.51 IU/dL, the “SOD (brain)” value is listed as 8.04 ± 0.57 IU/dL and the “TBARS (brain lipid peroxidation)” value stood at 19.02 ± 0.71 nmol/g.
In the case of `CN1C(=O)CN=C(c2ccccc2)c2cc(Cl)ccc21` [Standard, Diazepam, reference compound], in the test on mice [1], the “Weight of Adrenal Gland” value is reported as 10.58 ± 5.77 ^ns mg and the “Weight of Spleen” value turned out to be 158.3 ± 2.89 mg. Further, in the test on mice [3], the “Immobility Time (Min)” value is “reduced the immobility time to a significant level”. In the test on mice [4], the Glucose (blood) was determined as 108.2 ± 1.06 mg/dL, the “TGs (blood triglycerides)” value was determined as 38.52 ± 0.57 and the “Total Ch (blood total cholesterol)” value is 75.62 ± 0.65.
Regarding `Cc1ccc(-c2cc(=O)c3ccccc3o2)cc1` [F2], in the test on mice [1], the “Weight of Adrenal Gland” value was determined as 7.63 ± 1.11 mg, the “Weight of Brain” value came to 401.6 ± 3.11 mg and the “Weight of Spleen” value amounted to 180.4 ± 2.38 mg. Also, in test [2] (setting [6]), the inhibition in vivo at 10 mg/kg was found to be 72.3%. The “Immobility Time” value in the test on mice [3] was found to be 3.12 ± 0.38 min. Moreover, in the test on mice [4], the “Glucose (blood)” value was found to be 99.23 ± 1.69, the “TGs (blood triglycerides)” value stood at 45.09 ± 0.67 and the “Total Ch (blood total cholesterol)” value is given as 78.61 ± 0.78. Further, in the test on mice [5], the “Catalase (brain)” value was determined as 18.21 ± 0.61 IU/dL, the “SOD (brain)” value stood at 8.77 ± 0.59 IU/dL and the “TBARS (brain lipid peroxidation)” value turned out to be 18.72 ± 0.62 nmol/g.
With `O=c1cc(-c2ccc(Cl)cc2)oc2ccccc12` [F4], in the test on mice [1], the “Weight of Adrenal Gland” value is listed as 8.03 ± 1.98 mg, the “Weight of Brain” value amounted to 402.4 ± 3.19 mg and the “Weight of Spleen” value was 173.1 ± 2.66 mg. In addition, the inhibition in vivo at 10 mg/kg in test [2] (setting [8]) amounted to 65.8%. Further, the “Number of Writhes” value in test [2] (setting [7]) is 16.21 ± 2.09. In addition, the “Immobility Time” value in the test on mice [3] came to 3.21 ± 0.19 min. In the test with mice [4], the “Glucose (blood)” value was determined as 100.92 ± 1.91, the “TGs (blood triglycerides)” value was determined as 47.51 ± 0.38 and the “Total Ch (blood total cholesterol)” value was determined as 80.76 ± 0.91. Moreover, in the test on mice [5], the “Catalase (brain)” value turned out to be 17.88 ± 0.59 IU/dL, the “SOD (brain)” value worked out at 9.31 ± 0.78 IU/dL and the “TBARS (brain lipid peroxidation)” value came out at 19.09 ± 0.49 nmol/g.
On to `O=c1c(O)c(-c2ccccc2)oc2ccccc12` [OF1], for which, in the test on mice [1], the “Weight of Adrenal Gland” value was determined as 8.09 ± 1.34 mg, the “Weight of Brain” value is listed as 397.4 ± 3.76 mg and the “Weight of Spleen” value is on record as 188.4 ± 2.24 mg. Moreover, in test [2] (setting [6]), the inhibition in vivo at 10 mg/kg came out at 63.4%. Moreover, in test [2] (setting [7]), the “Number of Writhes” value was 17.32 ± 2.33. For the same compound, the “Immobility Time” value with mice [3] worked out at 4.32 ± 0.31 min. Besides, in the test on mice [4], the Glucose (blood) stood at 105 ± 1.77 mg/dL, the “TGs (blood triglycerides)” value came out at 51.22 ± 0.66 and the “Total Ch (blood total cholesterol)” value came to 80.81 ± 0.72. In the test on mice [5], the “Catalase (brain)” value was determined as 17.02 ± 0.71 IU/dL, the “SOD (brain)” value was 8.46 ± 0.76 IU/dL and the “TBARS (brain lipid peroxidation)” value is on record as 19.25 ± 0.51 nmol/g.
In the case of `COc1ccc(-c2cc(=O)c3ccccc3o2)cc1` [F3], in the test on mice [1], the “Weight of Adrenal Gland” value came to 7.22 ± 1.51 mg, the “Weight of Brain” value worked out at 411.3 ± 2.93 mg and the “Weight of Spleen” value is on record as 181.7 ± 2.06 mg. Moreover, in test [2] (setting [6]), the inhibition in vivo at 10 mg/kg came out at 74.4%. For the same compound, the “Immobility Time” value in the test on mice [3] worked out at 2.88 ± 0.26 min. In the test on mice [4], the “Glucose (blood)” value is on record as 98.45 ± 1.51, the “TGs (blood triglycerides)” value is reported as 44.69 ± 0.37 and the “Total Ch (blood total cholesterol)” value was 78.43 ± 0.93. Further, in the test with mice [5], the “Catalase (brain)” value was determined as 18.92 ± 0.51 IU/dL, the “SOD (brain)” value is 9.42 ± 0.87 IU/dL and the “TBARS (brain lipid peroxidation)” value is recorded as 18.44 ± 0.63 nmol/g.
On to `O=c1cc(-c2ccccc2)oc2ccccc12` [F1], for which, in the test with mice [1], the “Weight of Adrenal Gland” value stood at 8.13 ± 1.69 mg, the “Weight of Brain” value stood at 398.1 ± 2.57 mg and the “Weight of Spleen” value was 171.5 ± 2.71 mg. For the same compound, in test [2] (setting [6]), the inhibition in vivo at 10 mg/kg came out at 58.9%. The “Number of Writhes” value in test [2] (setting [7]) is on record as 19.45 ± 1.89. Moreover, the “Immobility Time” value with mice [3] amounted to 4.05 ± 0.45 min. In the test on mice [4], the Glucose (blood) is 105 ± 2.15 mg/dL, the “TGs (blood triglycerides)” value stood at 54.39 ± 0.87 and the “Total Ch (blood total cholesterol)” value amounted to 81.33 ± 0.61. In the test with mice [5], the “Catalase (brain)” value amounted to 16.33 ± 0.69 IU/dL, the “SOD (brain)” value is recorded as 7.96 ± 0.60 IU/dL and the “TBARS (brain lipid peroxidation)” value was 19.42 ± 0.51 nmol/g.
On to `Cc1ccc(-c2oc3ccccc3c(=O)c2O)cc1` [OF2], for which, in the test on mice [1], the “Weight of Adrenal Gland” value stood at 7.21 ± 1.87 mg, the “Weight of Brain” value is given as 414.2 ± 2.51 mg and the “Weight of Spleen” value is 190.5 ± 2.76 mg. The inhibition in vivo at 10 mg/kg in test [2] (setting [6]) was 74.3%. Moreover, in the test with mice [3], the “Immobility Time” value was determined as 2.95 ± 0.37 min. In the test with mice [4], the “Glucose (blood)” value came to 97.56 ± 1.61, the “TGs (blood triglycerides)” value is given as 42.88 ± 0.41 and the “Total Ch (blood total cholesterol)” value was 76.82 ± 0.86. Besides, in the test on mice [5], the “Catalase (brain)” value was found to be 18.74 ± 0.67 IU/dL, the “SOD (brain)” value is 9.02 ± 0.54 IU/dL and the “TBARS (brain lipid peroxidation)” value was 17.74 ± 0.56 nmol/g.
For `CN(C)c1ccc(-c2oc3ccccc3c(=O)c2O)cc1` [OF5], in the test with mice [1], the “Weight of Adrenal Gland” value worked out at 8.04 ± 1.18 mg, the “Weight of Brain” value turned out to be 400.5 ± 2.21 mg and the “Weight of Spleen” value came out at 186.3 ± 2.74 mg. Also, the inhibition in vivo at 10 mg/kg in test [2] (setting [6]) is 63.3%. Further, in test [2] (setting [7]), the “Number of Writhes” value worked out at 16.44 ± 3.04. The “Immobility Time” value with mice [3] is 3.25 ± 0.29 min. For the same compound, in the test with mice [4], the “Glucose (blood)” value is 101.09 ± 1.14, the “TGs (blood triglycerides)” value was 46.24 ± 0.39 and the “Total Ch (blood total cholesterol)” value turned out to be 77.91 ± 0.97. In the test on mice [5], the “Catalase (brain)” value is 17.06 ± 0.61 IU/dL, the “SOD (brain)” value is reported as 8.11 ± 0.51 IU/dL and the “TBARS (brain lipid peroxidation)” value is recorded as 18.56 ± 0.51 nmol/g.
Take `O=c1c(O)c(-c2ccc(Cl)cc2)oc2ccccc12` [OF4]: in the test with mice [1], the “Weight of Adrenal Gland” value was determined as 7.91 ± 1.91 mg, the “Weight of Brain” value was 401.8 ± 2.34 mg and the “Weight of Spleen” value came to 183.9 ± 2.56 mg. Further, the inhibition in vivo at 10 mg/kg in test [2] (setting [8]) was 67.1%. Further, in test [2] (setting [7]), the “Number of Writhes” value was 14.18 ± 2.17. In addition, the “Immobility Time” value in the test with mice [3] was determined as 3.44 ± 0.25 min. Moreover, in the test on mice [4], the “Glucose (blood)” value turned out to be 101.15 ± 1.66, the “TGs (blood triglycerides)” value stood at 46.92 ± 0.44 and the “Total Ch (blood total cholesterol)” value was 78.33 ± 0.76. Moreover, in the test with mice [5], the “Catalase (brain)” value is 17.45 ± 0.66 IU/dL, the “SOD (brain)” value was 8.35 ± 0.64 IU/dL and the “TBARS (brain lipid peroxidation)” value came to 18.67 ± 0.76 nmol/g.

The values are drawn from article PMC8879959, “In Vivo Antistress Effects of Synthetic Flavonoids in Mice: Behavioral and Biochemical Approach” (Molecules, 2022).
